Laboratory results as given in PubChem BioAssay AID2165 (The Scripps Research Institute Molecular Screening Center, 2009).
The source made the active and inactive calls. Rule as the data show it: active = IC50 below about 9 µM; inactive = the rest.

Molecular target: Tyrosine-protein kinase JAK2 (Homo sapiens) (UniProt O60674)
Test: JAK2V617F project follow-up: kinase, reporter, cytotoxicity – HEL and Ba/F3 cells, late-stage follow-up (AID 2165)
Conditions: JAK2V617F panel: kinase, IRF1 reporter

Tyrosine-protein kinase JAK2 (Homo sapiens), sequence (O60674 whole entry, looked up, change not shown): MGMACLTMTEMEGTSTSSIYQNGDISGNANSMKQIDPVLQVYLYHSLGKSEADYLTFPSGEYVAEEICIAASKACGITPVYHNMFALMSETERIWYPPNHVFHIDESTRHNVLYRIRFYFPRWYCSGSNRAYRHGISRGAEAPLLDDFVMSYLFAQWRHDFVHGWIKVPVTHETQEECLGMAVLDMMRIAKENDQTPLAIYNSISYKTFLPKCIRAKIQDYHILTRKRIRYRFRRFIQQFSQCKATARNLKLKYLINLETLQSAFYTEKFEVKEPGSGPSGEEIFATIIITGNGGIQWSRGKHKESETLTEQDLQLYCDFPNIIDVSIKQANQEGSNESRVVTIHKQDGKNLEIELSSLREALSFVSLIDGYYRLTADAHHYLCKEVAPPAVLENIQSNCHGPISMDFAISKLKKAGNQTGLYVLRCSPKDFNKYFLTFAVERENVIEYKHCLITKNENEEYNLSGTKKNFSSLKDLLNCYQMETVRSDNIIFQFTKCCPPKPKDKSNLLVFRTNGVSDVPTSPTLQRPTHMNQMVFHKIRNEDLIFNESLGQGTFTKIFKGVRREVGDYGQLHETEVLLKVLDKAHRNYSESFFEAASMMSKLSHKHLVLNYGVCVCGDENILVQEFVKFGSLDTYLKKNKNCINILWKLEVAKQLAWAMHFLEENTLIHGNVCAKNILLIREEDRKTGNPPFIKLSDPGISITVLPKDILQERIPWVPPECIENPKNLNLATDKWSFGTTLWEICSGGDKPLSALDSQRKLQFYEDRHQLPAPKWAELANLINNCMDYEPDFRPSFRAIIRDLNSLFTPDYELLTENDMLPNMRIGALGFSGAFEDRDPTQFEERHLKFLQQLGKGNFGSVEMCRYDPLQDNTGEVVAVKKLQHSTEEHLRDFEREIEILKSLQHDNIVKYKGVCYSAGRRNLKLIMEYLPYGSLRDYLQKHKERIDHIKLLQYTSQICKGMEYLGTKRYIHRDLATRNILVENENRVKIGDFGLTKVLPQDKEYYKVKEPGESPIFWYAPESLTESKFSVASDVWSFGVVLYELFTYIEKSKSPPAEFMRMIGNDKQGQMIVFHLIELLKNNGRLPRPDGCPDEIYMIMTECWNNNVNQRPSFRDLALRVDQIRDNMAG

| SMILES | IC50 (HEL, irf1 reporter) | IC50 (JAK2V617F) | IC50 (Ba/F3, irf1 reporter) |
| --- | --- | --- | --- |
| COCCOc1cc2ncnc(Nc3cccc(C#Cc4ccc(O)cc4)c3)c2cc1OCCOC | 0.0948 µM | 2.74 µM | – |
| Cc1cc(C)cc(NC(=O)COc2cccc(C)c2)c1 | – | > 40 µM (inactive) | – |
| O=C1/C(=C/c2ccc(O)c(O)c2)SC(=S)N1Nc1ccccc1 | 10.2 µM | – | 4.04 µM |
| O=C(CCl)N=c1sccn1Cc1cccc2ccccc12 | 0.202 µM | – | 7.24 µM |
| Cc1ccc(O)c(NC(=O)COc2cc(C)ccc2C)c1 | – | 2.23 µM | – |
| C/C(=C\c1ccccc1F)C(=O)c1c(C)cc(C)[nH]c1=O | 3.24 µM | > 40 µM (inactive) | > 40 µM (inactive) |
| O=C(OCn1ncc(Cl)c(Cl)c1=O)c1ccc(F)cc1 | 8.04 µM | – | 1.94 µM |
| c1ccc(CCNc2nc(-c3ccccn3)nc3ccccc23)cc1 | 2.88 µM | – | 5.49 µM |
| O=C(NC1C=CS(=O)(=O)C1)c1sc2ccccc2c1Cl (configuration not stated) | > 40 µM (inactive) | – | 8.98 µM |
| Cc1ccc(O)c(NC(=O)COc2cc(C)c(Cl)c(C)c2)c1 | – | > 40 µM (inactive) | – |
| CCCCCCN(C(=O)CCl)c1ccccc1 | 8.71 µM | – | 3.62 µM |
| COc1cc2ncnc(NC3CCCCC3)c2cc1OC | 5.22 µM | > 40 µM (inactive) | – |
| Cc1ccc(O)c(NC(=O)COc2ccccc2C)c1 | – | > 40 µM (inactive) | – |
| CCCOc1ccc(C(=O)C(CN2CCOCC2)c2ccccc2)cc1 (configuration not stated) | 11.4 µM | – | > 40 µM (inactive) |
| O=C(Nc1cccc2c1[nH]c1ccccc12)C(F)(F)F | 3.68 µM | – | 18.9 µM |
| COc1ccc(C)cc1NC(=O)Nc1ccc(Br)cn1 | > 40 µM (inactive) | > 40 µM (inactive) | – |
| COc1cccc(N(C(=O)CCl)C(C(=O)NCCc2ccccc2)c2cccs2)c1 (configuration not stated) | 1.04 µM | – | 2.76 µM |
| Cc1ccc(O)c(NC(=O)COc2ccc(C3CCCCC3)cc2)c1 | – | > 40 µM (inactive) | – |
| COc1ccc(N2CCc3c(C)nc4c(OC)cc(OC)cc4c32)c(OC)c1 | – | – | 7.67 µM |
| Cc1cc(SCC(=O)N/N=C/c2ccc(O)c(O)c2)c(C)cc1Br | > 40 µM (inactive) | – | 2.02 µM |
| COc1cc2ncnc(Nc3cccc(C)c3)c2cc1OC | 7.18 µM | > 40 µM (inactive) | – |
| CC(C)(C)OC(=O)N[C@@H](Cc1ccccc1)c1nnc(S(=O)(=O)Cc2cccc(F)c2)o1 | 26.3 µM | – | 0.904 µM |
| CC1CCCN(CCCNC(=O)c2cc3c(Cl)nc4ccccc4c3s2)C1 (configuration not stated) | > 40 µM (inactive) | – | 11.6 µM |

| SMILES | IC50 (HEL, irf1 reporter) | IC50 (JAK2V617F) | IC50 (Ba/F3, irf1 reporter) |
| --- | --- | --- | --- |
| N#C/C(=C\c1ccc(O)c(O)c1)C(=O)NCCc1ccccc1 | 5.15 µM | 0.79 µM | 0.2 µM |
| Cc1ccc(Cn2ccsc2=NC(=O)CCl)cc1 | 3.11 µM | – | 6.74 µM |
| N#CC(C#N)=Cc1cc(O)c(O)c(I)c1 | 19.6 µM | 8.82 µM | 5.01 µM |
| Cc1cc2ncc(-c3ccc(O)c(O)c3)nc2cc1C | 3.19 µM | 0.84 µM | 0.104 µM |
| Cc1ccc(O)c(NC(=O)COc2cccc3ccccc23)c1 | – | 2.34 µM | – |
| CCCc1nc2ccccc2c(=O)n1/N=C/c1ccc(O)c(O)c1 | 13.1 µM | – | 2.13 µM |
| Cc1[nH]c(=O)c(C(=O)C=Cc2ccccc2Cl)c2c1CCCC2 | 0.53 µM | 0.13 µM | 0.214 µM |
| COCCOc1cc2nc[nH]c(=O)c2cc1OCCOC | > 40 µM (inactive) | > 40 µM (inactive) | – |
| COc1ccc(OCC(=O)Nc2cc(C)ccc2O)cc1 | – | 3.4 µM | – |
| C/C(=C\c1ccc(N(C)C)cc1)[N+](=O)[O-] | 4.29 µM | – | 2.65 µM |
| Cc1[nH]c2ccccc2c(=O)c1C(=O)/C=C/c1ccccc1 | 3.98 µM | – | > 40 µM (inactive) |
| CC(C)c1cc(C=C(C#N)C(=O)NCCCc2ccccc2)cc(C(C)C)c1O | 1.15 µM | 3.97 µM | 0.54 µM |
| COc1cc2c(cc1OC)-c1cc(N3CCCc4ccccc43)nc(=O)n1CC2 | > 40 µM (inactive) | – | > 40 µM (inactive) |
| COc1ccc(Cl)cc1NC(=O)NC(C)c1ccncc1 (configuration not stated) | > 40 µM (inactive) | > 40 µM (inactive) | – |
| COc1ccc(-n2nnnc2SCC(=O)c2ccc(O)c(O)c2)cc1 | 25.5 µM | – | 6.22 µM |
| CCN(CC)S(=O)(=O)c1cccc(-n2c(O)c(C=Nc3ccccc3C(=O)O)c3ccccc3c2=O)c1 | > 40 µM (inactive) | – | > 40 µM (inactive) |
| COc1cccc(Nc2ncnc3cc(OC)c(OC)cc23)c1 | 3.54 µM | > 40 µM (inactive) | – |
| Cc1cccc(NC(=O)c2ccc([N+](=O)[O-])o2)c1 | 10.5 µM | – | 6.3 µM |
| CC(C)C1C(C#N)=C(N)Oc2n[nH]c(-c3ccc4ccccc4c3)c21 (configuration not stated) | 16.1 µM | – | 4.7 µM |
| CC1CCN(CCCNC(=O)c2cc3c(Cl)nc4ccccc4c3s2)CC1 | > 40 µM (inactive) | – | 9.98 µM |
| Cc1cccc(OCC(=O)Nc2ccc(O)cc2)c1 | – | > 40 µM (inactive) | – |
| COc1ccc(Nc2ccc3c(c2)=NC2(CCCCC2)[N+]=3[O-])cc1 | 5.14 µM | – | 5.6 µM |
